From PubChem BioAssay (NCI)
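Method: 48-hour compound exposure of cells in 96-well plates, five concentrations, linear interpolation of endpoints. Here, GI50 denotes the concentration required for 50% inhibition of growth. TGI denotes the concentration required for complete inhibition of growth.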

Experiments:
Test in all cases: NCI anticancer screen, dose series, 48 h
[1] = tested on: EKVX NSCLC
[2] = tested on: HT29 colon
[3] = tested on: LOX IMVI melanoma
[4] = tested on: M14 melanoma
[5] = tested on: OVCAR-3 ovarian
[6] = tested on: OVCAR-5 ovarian
[7] = tested on: RPMI-8226 leukemia
[8] = tested on: SNB-75 CNS
[9] = tested on: A498 renal
[10] = tested on: CAKI-1 renal

SMILES | TGI [1] [µM] | TGI [2] [µM] | TGI [3] [µM] | TGI [4] [µM] | TGI [5] [µM] | TGI [6] [µM] | TGI [7] [µM] | TGI [8] [µM] | TGI [9] [µM] | TGI [10] [µM] | GI50 [9] [µM] | GI50 [10] [µM] | GI50 [1] [µM] | GI50 [2] [µM] | GI50 [3] [µM] | GI50 [4] [µM] | GI50 [5] [µM] | GI50 [6] [µM] | GI50 [8] [µM]
Cc1cc(C)n(-c2nsc3ccccc23)n1 | > 100 | > 100 | > 100 | > 100 | > 100 | > 100 | > 100 | 98.3 |  |  |  |  |  |  |  |  |  |  | 
CSc1nc(NC2OCC(O)C(O)C2O)c(N)c(=O)[nH]1 (stereo not drawn) | > 100 | > 100 | > 100 |  | > 100 | > 100 | > 100 | > 100 | > 100 |  |  |  |  |  |  |  |  |  | 
Brc1ccc(C2CC(c3cccc4ccccc34)=Nc3ccccc3S2)cc1 (stereo not drawn) | > 100 | > 100 | > 100 | > 100 |  | > 100 | 51.6 | > 100 | > 100 | > 100 |  |  |  |  |  |  |  |  | 
C/C(N=NS(=O)(=O)c1ccccc1)=C1\C=CC=CN1O | > 100 | > 100 |  | > 100 | > 100 | > 100 | > 100 | > 100 | > 100 | > 100 |  |  |  |  |  |  |  |  | 
CC(C)(C)[Si](C)(C)OCC1OC(n2cnc3c(N)ncnc32)CC1O (stereo not drawn) |  | > 100 | > 100 | > 100 | > 100 | > 100 | > 100 | > 100 | > 100 | > 100 |  |  |  |  |  |  |  |  | 
CC1CCC2(O)C3(C)CC4(O)OC2(C1O)C1(O)C3(O)C(OC(=O)c2ccc[nH]2)C(O)(C(C)C)C41C (stereo not drawn) | > 100 | > 100 | > 100 | > 100 | > 100 | > 100 | > 100 | > 100 | > 100 | > 100 |  |  |  |  |  |  |  |  | 
c1coc(CNc2ncnc3[nH]ncc23)c1 | > 100 | > 100 | > 100 | > 100 | > 100 | > 100 | > 100 | > 100 | > 100 | > 100 |  |  |  |  |  |  |  |  | 
CC(=O)c1ccc2c(c1)c1c(C)c3c[n+](C)ccc3c(C)c1n2C | > 100 | > 100 | 49.4 |  | > 65.6 | > 100 | 30.5 | 57.1 | 46.5 | > 76 |  |  |  |  |  |  |  |  | 
NCCCOc1ccc([N+](=O)[O-])cc1Cl |  | > 100 |  | > 100 | > 100 | > 100 | > 100 | > 100 |  | > 100 |  |  |  |  |  |  |  |  | 
Fc1ccc(C2CC(c3cccc(Nc4ccncc4)c3)=NN2c2ccc(Cl)cc2)cc1 (stereo not drawn) | 6.33 | 4.44 | 3.06 | 3.38 | 3.07 | 4.05 |  | 2.8 | 4.62 | 2.71 | 1.15 | 1.39 | 2.11 | 1.99 | 1.69 | 1.77 | 1.62 | 1.81 | 1.25
Cc1cc2c(cc1C)OC(=O)CC2 | > 100 | > 100 | > 100 | > 100 | > 100 | > 100 | > 100 | > 100 | > 100 | > 100 |  |  |  |  |  |  |  |  | 
OCCOCCN1CCN(CCCN2c3ccccc3Sc3ccc(C(F)(F)F)cc32)CC1 | 29.2 | 7.65 | 15.1 | 5.39 | 33 | 27.3 | 17.8 | 13.6 | 22.6 | 30.5 |  |  |  |  |  |  |  |  | 
N#CN=[N+]([O-])c1ccc(C(=O)O)cc1 | 35.8 | 46.3 |  | 34 | 29.7 | 34.7 | 35.3 | 38.9 |  |  |  |  |  |  |  |  |  |  | 
CC(=O)OCC1=C(C(=O)O)N2C(=O)C(NC(=O)CSc3ccncc3)C2SC1 (stereo not drawn) | > 100 | > 100 | > 100 | > 100 | > 100 | > 100 | > 100 | > 100 | > 100 | > 100 |  |  |  |  |  |  |  |  | 
CCN(CC)CCNc1ccc2nnn3c4ccc(C)cc4c(=O)c1c23 |  | 16.1 | 14.8 | 26.4 | 29.9 | 21.4 | 21.6 | 23.2 | 29.3 | 34.9 |  |  |  |  |  |  |  |  | 
O=C1Nc2ccccc2C1=Nc1cccc2ncccc12 | 85.6 | > 100 | > 100 | > 100 | > 100 | > 100 | > 100 | > 100 | > 100 | > 100 |  |  |  |  |  |  |  |  | 
